Legend:
[1] = biological target: T1, PTPN2 (HiBIT-PTPN2 in 293T.109 cells) (Homo sapiens, UniProt P17706); test: HiBiT Degradation 293T.109 PTPN2 (Nano-Glo HiBiT Lytic Assay); type: cell-based; details: 24.0 hours
T1 construct: expressed in transfected cells; host or cells: 293T.109 (293T WT from ATCC)
T1 sequence (P17706 1-415): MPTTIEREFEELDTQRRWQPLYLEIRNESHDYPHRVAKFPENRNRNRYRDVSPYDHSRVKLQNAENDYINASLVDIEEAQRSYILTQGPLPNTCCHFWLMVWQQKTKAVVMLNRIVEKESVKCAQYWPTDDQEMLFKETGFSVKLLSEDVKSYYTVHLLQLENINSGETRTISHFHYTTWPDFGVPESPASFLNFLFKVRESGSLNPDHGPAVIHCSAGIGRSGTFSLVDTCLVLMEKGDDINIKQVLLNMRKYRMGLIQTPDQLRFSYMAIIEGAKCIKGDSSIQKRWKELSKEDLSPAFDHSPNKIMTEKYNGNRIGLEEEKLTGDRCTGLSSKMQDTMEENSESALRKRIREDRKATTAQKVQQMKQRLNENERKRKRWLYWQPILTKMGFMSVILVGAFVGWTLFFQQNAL
From the text: Dulbecco's modified Eagle medium (DMEM) without phenol red and fetal bovine serum (FBS) were purchased from Gibco (Grand Island, NY, USA). Nano-Glo® HiBIT Lytic Assay System was purchased from Promega (Madison, WI, USA). 293T.109 (HiBIT-PTPN2) cell line was generated by ectopically expressing PTPN2 with N-terminal HiBIT fusion tag in 293T WT cell line purchased from ATCC (Manassas, VA, USA). Cell culture flasks and 384-well microplates were acquired from VWR (Radnor, PA, USA).
PTPN2 degradation was determined based on quantification of luminescent signal using Nano-Glo® HiBIT Lytic Assay kit. Test compounds were added to the 384-well plate from a top concentration of 10 μM with 11 points, half log titration in duplicates. 293T.109 cells were added into 384-well plates at a cell density of 5000 cells per well. The plates were kept at 37° C. with 5% CO2 for 24 hours. The cells treated in the absence of the test compound were the negative control and the cells without Nano-Glo® HiBIT Lytic reagent were the positive control. After 24-hour incubation, Nano-Glo® HiBiT Lytic Assay reagents were added to the cells. Luminescence was acquired on EnVision™ Multilabel Reader (PerkinElmer, Santa Clara, CA, USA).

PTPN2 (B16F10.4 cells) = biological target: T2, PTPN2 (B16F10.4 cells) (Mus musculus, UniProt Q06180); test: HiBiT Degradation B16F10.4 PTPN2; type: cell-based; details: 24.0 hours
T2 construct: HiBiT; host or cells: B16F10.4
T2 sequence (Q06180 1-406): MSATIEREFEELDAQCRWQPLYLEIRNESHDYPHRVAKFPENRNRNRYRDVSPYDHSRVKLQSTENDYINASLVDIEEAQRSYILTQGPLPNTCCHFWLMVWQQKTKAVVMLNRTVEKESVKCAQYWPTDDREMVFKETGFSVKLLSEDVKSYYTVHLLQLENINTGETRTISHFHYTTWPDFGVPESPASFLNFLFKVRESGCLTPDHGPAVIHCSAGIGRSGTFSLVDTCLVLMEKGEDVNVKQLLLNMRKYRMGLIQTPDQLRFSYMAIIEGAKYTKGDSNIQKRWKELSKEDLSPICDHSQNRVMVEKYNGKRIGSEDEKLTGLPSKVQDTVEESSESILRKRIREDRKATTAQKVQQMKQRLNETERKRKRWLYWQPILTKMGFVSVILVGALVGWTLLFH

| SMILES | DC50 [1] [nM] | DC50 (PTPN2 (B16F10.4 cells)) [nM] |
| --- | --- | --- |
| O=C(O)COc1c(C(=O)O)sc(-c2cccc(NC3CCN(S(=O)(=O)Cc4cccc(NC(=O)CCc5ccc6c(c5)CN(C5CCC(=O)NC5=O)C6=O)c4)CC3)c2)c1Cl (stereo not shown) [Example 47] | 200 to 1000 | 200 to 1000 |
| CC1(C)C[C@@H](Nc2cccc(-c3sc(C(=O)O)c(OCC(=O)O)c3Cl)c2)CCN1S(=O)(=O)Cc1cccc(NC(=O)C2CCN(C(=O)COc3cccc4c3C(=O)N(C3CCC(=O)NC3=O)C4=O)CC2)c1 (stereo partly drawn) [Example 58, 3-(carboxymethoxy)-4-chloro-5-[3-[[(4S)-1-[3-[[1-[2-[[2-(2,6-dioxo-3-piperidyl)-1,3-dioxo-isoindolin-4-yl]oxyacetyl]piperidine-4-carbonyl]amino]phenyl]methylsulfonyl]-2,2-dimethyl-4-piperidyl]amino]phenyl]thiophene-2-carboxylic acid] | 200 to 1000 | ≥ 1000 |
| CC1(C)C[C@@H](Nc2cccc(-c3sc(C(=O)O)c(OCC(=O)O)c3Cl)c2)CCN1S(=O)(=O)Cc1cccc(NC(=O)N2CCC(c3ccc4c5c(cccc35)C(=O)N4C3CCC(=O)NC3=O)CC2)c1 (stereo partly drawn) [Example 82, 3-(carboxymethoxy)-4-chloro-5-[3-[[(4S)-1-[[3-[[4-[1-(2,6-dioxo-3-piperidyl)-2-oxo-benzo[cd]indol-6-yl]piperidine-1-carbonyl]amino]phenyl]methylsulfonyl]-2,2-dimethyl-4-piperidyl]amino]phenyl]thiophene-2-carboxylic acid] | < 50 | < 50 |
| Cn1c(=O)n(C2CCC(=O)NC2=O)c2ccc(C3CN(CC(=O)Nc4cccc(CS(=O)(=O)N5CC[C@H](Nc6cccc(-c7sc(C(=O)O)c(OCC(=O)O)c7Cl)c6)CC5(C)C)c4)C3)cc21 (stereo partly shown) [Example 184] | < 50 | 50 to 200 |
| CC1(C)C[C@H](Nc2cccc(-c3sc(C(=O)O)c(OCC(=O)O)c3Cl)c2)CCN1S(=O)(=O)Cc1ccc(F)c(NC(=O)[C@H]2[C@@H]3CN(C(=O)CNc4cccc5c4CN(C4CCC(=O)NC4=O)C5=O)C[C@@H]32)c1 (stereo partly drawn) [Example 111, 3-(carboxymethoxy)-4-chloro-5-(3-(((4R)-1-((3-((1R,5S,6r)-3-((2-(2,6-dioxopiperidin-3-yl)-1-oxoisoindolin-4-yl)glycyl)-3-azabicyclo[3.1.0]hexane-6-carboxamido)-4-fluorobenzyl)sulfonyl)-2,2-dimethylpiperidin-4-yl)amino)phenyl)thiophene-2-carboxylic acid] | 200 to 1000 | ≥ 1000 |
| Cn1c(=O)n(C2CCC(=O)NC2=O)c2ccc(NC3CN(C(=O)Nc4cccc(CS(=O)(=O)N5CC[C@H](Nc6cccc(-c7sc(C(=O)O)c(OCC(=O)O)c7Cl)c6)CC5(C)C)c4)C3)cc21 (stereo partly shown) [Example 79] | < 50 | 50 to 200 |
| Cn1c(=O)n(C2CCC(=O)NC2=O)c2ccc(N3CCCC4(CN(C(=O)Nc5cccc(CS(=O)(=O)N6CC[C@H](Nc7cccc(-c8sc(C(=O)O)c(OCC(=O)O)c8Cl)c7)CC6(C)C)c5)C4)C3)cc21 (stereo partly shown) [Example 141] | – | 200 to 1000 |

Second part, the compound after the results:

| DC50 [1] [nM] | DC50 (PTPN2 (B16F10.4 cells)) [nM] | SMILES |
| --- | --- | --- |
| 50 to 200 | 200 to 1000 | CC1(C)C[C@@H](Nc2cccc(-c3sc(C(=O)O)c(OCC(=O)O)c3Cl)c2)CCN1S(=O)(=O)Cc1cccc(NC(=O)[C@H]2CC[C@H](C(=O)Nc3cccc4c3CN(C3CCC(=O)NC3=O)C4=O)CC2)c1 (stereo partly drawn) [Example 86, 3-(carboxymethoxy)-4-chloro-5-(3-(((4S)-1-((3-((1r,4R)-4-((2-(2,6-dioxopiperidin-3-yl)-1-oxoisoindolin-4-yl)carbamoyl)cyclohexane-1-carboxamido)benzyl)sulfonyl)-2,2-dimethylpiperidin-4-yl)amino)phenyl)thiophene-2-carboxylic acid] |
| 50 to 200 | 50 to 200 | Cn1c(=O)n(C2CCC(=O)NC2=O)c2ccc(C3CN(C(=O)Nc4cccc(CS(=O)(=O)N5CC[C@H](Nc6cccc(-c7sc(C(=O)O)c(OCC(=O)O)c7Cl)c6)CC5(C)C)c4)C3)cc21 (stereo partly drawn) [Example 106, 3-(carboxymethoxy)-4-chloro-5-[3-[[(4S)-1-[[3-[[3-[1-(2,6-dioxo-3-piperidyl)-3-methyl-2-oxo-benzimidazol-5-yl]azetidine-1-carbonyl]amino]phenyl]methylsulfonyl]-2,2-dimethyl-4-piperidyl]amino]phenyl]thiophene-2-carboxylic acid] |
| 200 to 1000 | 200 to 1000 | CC1(C)C[C@@H](Nc2cccc(-c3sc(C(=O)O)c(OCC(=O)O)c3Cl)c2)CCN1S(=O)(=O)Cc1cccc(NC(=O)CN2CCC(n3c(=O)n(C4CCC(=O)NC4=O)c4ccccc43)CC2)c1 (stereo partly drawn) [Example 130, 3-(carboxymethoxy)-4-chloro-5-[3-[[(4S)-1-[[3-[[2-[4-[3-(2,6-dioxo-3-piperidyl)-2-oxo-benzimidazol-1-yl]-1-piperidyl]acetyl]amino]phenyl]methylsulfonyl]-2,2-dimethyl-4-piperidyl]amino]phenyl]thiophene-2-carboxylic acid] |
| < 50 | < 50 | Cn1c(=O)n(C2CCC(=O)NC2=O)c2ccc(C3CCN(C(=O)Nc4cccc(CS(=O)(=O)N5CC[C@H](Nc6cccc(-c7sc(C(=O)O)c(OCC(=O)O)c7Cl)c6F)CC5(C)C)c4)CC3)cc21 (stereo partly drawn) [Example 134, 3-(carboxymethoxy)-4-chloro-5-[3-[[(4S)-1-[[3-[[4-[1-(2,6-dioxo-3-piperidyl)-3-methyl-2-oxo-benzimidazol-S-yl]piperidine-1-carbonyl]amino]phenyl]methylsulfonyl]-2,2-dimethyl-4-piperidyl]amino]-2-fluoro-phenyl]thiophene-2-carboxylic acid] |
| 50 to 200 | 50 to 200 | Cn1c(=O)n(C2CCC(=O)NC2=O)c2ccc(C3CCN(C(=O)Nc4cc(CS(=O)(=O)N5CC[C@H](Nc6cccc(-c7sc(C(=O)O)c(OCC(=O)O)c7Cl)c6)CC5(C)C)ccc4F)CC3)cc21 (stereo partly drawn) [Example 119, 3-(carboxymethoxy)-4-chloro-5-[3-[[(4S)-1-[[3-[[4-[1-(2,6-dioxo-3-piperidyl)-3-methyl-2-oxo-benzimidazol-5-yl]piperidine-1-carbonyl]amino]-4-fluoro-phenyl]methylsulfonyl]-2,2-dimethyl-4-piperidyl]amino]phenyl]thiophene-2-carboxylic acid] |
| < 50 | < 50 | Cn1c(=O)n([C@H]2CCC(=O)NC2=O)c2ccc([C@@H]3CCN(C(=O)Nc4cccc(CS(=O)(=O)N5CC[C@H](Nc6cccc(-c7sc(C(=O)O)c(OCC(=O)O)c7Cl)c6)CC5(C)C)c4)CC3(F)F)cc21 (single isomer, unassigned) [Example 169a] |
| 50 to 200 | 50 to 200 | CC1(C)C[C@@H](Nc2cccc(-c3sc(C(=O)O)c(OCC(=O)O)c3Cl)c2)CCN1S(=O)(=O)Cc1cccc(NC(=O)N2CCC(c3ccc4c(c3)n(C(C)(C)C)c(=O)n4C3CCC(=O)NC3=O)CC2)c1 (stereo partly drawn) [Example 186, 5-(3-(((4S)-1-((3-(4-(3-(tert-butyl)-1-(2,6-dioxopiperidin-3-yl)-2-oxo-2,3-dihydro-1H-benzo[d]imidazol-5-yl)piperidine-1-carboxamido)benzyl)sulfonyl)-2,2-dimethylpiperidin-4-yl)amino)phenyl)-3-(carboxymethoxy)-4-chlorothiophene-2-carboxylic acid] |
| 200 to 1000 | – | CC1(C)C[C@@H](Nc2cccc(-c3sc(C(=O)O)c(OCC(=O)O)c3Cl)c2)CCN1S(=O)(=O)Cc1cccc(NC(=O)N2CCCN(c3ccc4c5c(cccc35)N(C3CCC(=O)NC3=O)C4=O)CC2)c1 (stereo partly drawn) [Example 164, 3-(carboxymethoxy)-4-chloro-5-(3-(((4S)-1-((3-(4-(1-(2,6-dioxopiperidin-3-yl)-2-oxo-1,2-dihydrobenzo[cd]indol-5-yl)-1,4-diazepane-1-carboxamido)benzyl)sulfonyl)-2,2-dimethylpiperidin-4-yl)amino)phenyl)thiophene-2-carboxylic acid] |

Source: US20250302815A1, “PROTEIN TYROSINE PHOSPHATASE TARGETING LIGANDS” (CALICO LIFE SCIENCES LLC, priority 2021, published 2025)
